Test results published in patent US7820876B2 (priority 2000, dated 2010).
“Also recorded” adds a separate entry of the source.

Key:
[1] = tested on: nicotinic acetylcholine receptors (nAChR) of striatal synaptosomes; format: biochemical, mouse
[2] = tested on: nAChRs containing the α6 subunit (brain sections); format: binding, mouse
[3] = tested on: nicotinic receptors of striatum membrane preparations; format: binding, mouse
[4] = tested on: nicotinic receptors in brain; format: binding, mouse
cFos expression = conditions: mouse, in vivo

α-Conotoxin MII [αCtxMII]
DA release peak induced by nicotine above the basal level in presence of αCtxMII [1]: 50%
binding sites on brain sections [2]: presence of binding sites in three major anatomical systems
high affinity binding sites for the toxin [2]: complete disappearance
sites sensitive to αCtxMII as share of the total number of epibatidine sites [3]: 20%
sites with high and low affinity for αCtxMII [3]: total disappearance

O=c1cccc2n1C[C@@H]1CNC[C@H]2C1 [cytisine]
number of sites with high affinity for the ligand [4]: reduction; also recorded: no other difference could be detected

α-bungarotoxin
ligand bond (distribution of binding sites) in mutants versus Wt [4]: not modified

CN1CCCC1c1cccnc1 (stereo not drawn) [nicotine]
change in the affinity of the dopamine release response to nicotine (dose-response curve) [1]: loss of affinity of an order of magnitude; also recorded: drop of one order of magnitude
dopamine release peak induced by nicotine [1]: 50%
effect of nicotine on dopamine release [1]: completely absent
increase in dopamine release over the basal level [1]: about 100%
number of sites with high affinity for the ligand [4]: reduction; also recorded: no other difference could be detected
activation of cFos expression in response to nicotine (cFos expression): absence of activation

Clc1ccc(C2CC3CCC2N3)cn1 (stereo not drawn) [epibatidine]
number of sites with high affinity for the ligand [4]: reduction; also recorded: no other difference could be detected
total number of epibatidine sites [3]: could not show a reduction
